Consider six compounds from DBAASP.

Values after ≈ are worked out from the molar mass of the structure shown. Values joined by “and” are separate entries in the source; they are usually repeats but may differ in a detail not shown here. Equal entries are not always repeated.

Test systems include Staphylococcus aureus MR; Escherichia coli; Escherichia coli UB1005; Candida albicans; Escherichia coli ESBL; Pseudomonas aeruginosa; Bacillus subtilis 168; Escherichia coli ML-35p.
What all share (experiment): ≥ marks a high value that may be exact or a test limit, other limits are often not marked, values filed in µg/mL are converted to µM
For assay [1], the system named is Aspergillus oryzae NBRC 100959.
Assay [2] has as its system Staphylococcus epidermidis NBRC 12993.
The subject of assay [3] is Escherichia coli NBRC 3972.
Assay [4] relates to Candida viswanathii NBRC 10321.
Assay [5] has as its system Micrococcus luteus NBRC 3333.
In assay [6] the test system is Pseudomonas aeruginosa PAO1.
Assay [7] relates to Pseudomonas aeruginosa 910.
Assay [8] has as its system Pseudomonas aeruginosa 253.
Assay [9] deals with Staphylococcus aureus ATCC 25923.
The subject of assay [10] is Enterococcus faecalis NCTC 12203.
In assay [11] the test system is Staphylococcus epidermidis.
Assay [12] concerns Staphylococcus aureus ATCC 29213.
Assay [13] concerns Salmonella enterica serovar Typhimurium.
Assay [14] concerns Escherichia coli ATCC 25922.
The test system of assay [15] is Enterococcus faecalis ATCC 29212.
Assay [16] concerns Pseudomonas aeruginosa 919.
For assay [17], the system named is Mycobacterium tuberculosis H37Rv.
For assay [18], the system named is Pseudomonas aeruginosa H103.
The subject of assay [19] is Pseudomonas aeruginosa ATCC 27853.
For assay [20], the system named is Staphylococcus aureus Xen36.
Assay [21] concerns Staphylococcus aureus ATCC BAA-1696.
Assay [22] deals with Mycobacterium tuberculosis H37Ra.
The subject of assay [23] is Staphylococcus aureus NRS 72.
The test system of assay [24] is Escherichia coli DH5alpha.
The subject of assay [25] is Staphylococcus aureus USA 300.
Assay [26] deals with Saccharomyces cerevisiae NBRC 10217.
Assay [27] has as its system Staphylococcus aureus NBRC 12732.
The test system of assay [28] is Escherichia coli NBRC 14237.
Assay [29] relates to Staphylococcus aureus 1399/17.
In assay [30] the test system is Pseudomonas aeruginosa 522/17.
For assay [31], the system named is Escherichia coli ESBL 521/17.
The test system of assay [32] is Staphylococcus aureus ATCC 33591.
The subject of assay [33] is Klebsiella pneumoniae ESBL 344/17.
In assay [34] the test system is Acinetobacter baumannii 7226/16.
Assay [35] has as its system Staphylococcus aureus SG511.

The MIC is the smallest concentration in the dilution series that meets the test's criterion for growth inhibition. Consider `CSCC[C@H](NC(=O)[C@H](CCCCN)NC(=O)[C@H](Cc1c[nH]c2ccccc12)NC(=O)[C@H](CCCN=C(N)N)NC(=O)[C@H](CCCCN)NC(=O)[C@H](Cc1ccccc1)NC(=O)[C@H](CC(C)C)NC(=O)[C@H](CCCN=C(N)N)NC(=O)[C@H](CCCCN)NC(=O)[C@@H](NC(=O)[C@H](CCCCN)NC(=O)[C@@H](N)CCCN=C(N)N)C(C)C)C(=O)O` [RKVKRLFKRWKM], for which the MIC in [1] is ≥ 59.7 µM; in [2], 29.8 µM (≈ 50 µg/mL); in [3] it was ≥ 477 µM; in assay [4] it was ≥ 59.7 µM; in assay [5], ≥ 59.7 µM.

In the case of `CC[C@H](C)[C@H](NC(=O)[C@H](CCCN=C(N)N)NC(=O)[C@H](Cc1c[nH]c2ccccc12)NC(=O)[C@H](CCCN=C(N)N)NC(=O)[C@@H](N)CCCN=C(N)N)C(=O)N[C@H](C(=O)N[C@H](C(=O)N[C@H](C(=O)N[C@@H](CCCN=C(N)N)C(=O)N[C@H](C(=O)N[C@@H](CCCN=C(N)N)C(=O)N[C@@H](CCCN=C(N)N)C(=O)O)C(C)C)[C@@H](C)CC)C(C)C)C(C)C` [RRWRIVVIRVRR], the MIC amounted to 1.2 µM (≈ 2 µg/mL) against Staphylococcus aureus MR; 8 µM (≈ 13.3 µg/mL) in [6]; 16 µM (≈ 26.6 µg/mL) in assay [7]; 8 µM (≈ 13.3 µg/mL) in assay [8]; 4 µM (≈ 6.66 µg/mL) in assay [9]; 1.2 µM (≈ 2 µg/mL) in the assay with Escherichia coli. Also, the MIC in assay [10] was 1.2 µM (≈ 2 µg/mL); in assay [11] it was 0.12 µM and 0.3 µM; in [12] it was 1.2 µM (≈ 2 µg/mL); in the assay with Escherichia coli UB1005 it was 0.601 µM (≈ 1 µg/mL); in [13], 2.4 µM (≈ 4 µg/mL); in assay [14], 2 µM (≈ 3.33 µg/mL). Further, the MIC in assay [15] was found to be 2.4 µM (≈ 4 µg/mL); in [16] it was 16 µM (≈ 26.6 µg/mL); in [17], 1.92 µM (≈ 3.2 µg/mL); in assay [18] it was 1.2 µM (≈ 2 µg/mL); against Candida albicans, 2.4 µM (≈ 4 µg/mL).

As to `NCCCC[C@H](NC(=O)CNC(=O)[C@H](CCCCN)NC(=O)[C@H](CC(N)=O)NC(=O)[C@H](CCCCN)NC(=O)[C@H](Cc1cnc[nH]1)NC(=O)[C@H](CCCCN)NC(=O)CN)C(=O)N[C@@H](CCCCN)C(=O)N[C@@H](CC(N)=O)C(=O)NCC(=O)N[C@@H](CCCCN)C(=O)N[C@@H](Cc1cnc[nH]1)C(=O)N[C@@H](CC(N)=O)C(=O)NCC(=O)N[C@@H](Cc1c[nH]c2ccccc12)C(=O)N[C@@H](CCCCN)C(=O)N[C@@H](Cc1c[nH]c2ccccc12)C(=O)N[C@@H](Cc1c[nH]c2ccccc12)C(=O)N[C@@H](Cc1c[nH]c2ccccc12)C(=O)O` [GKHKNKGKKNGKHNGWKWWW], the MIC is 3.19 µM (≈ 8 µg/mL) in assay [19]; 1.6 µM (≈ 4 µg/mL) against Staphylococcus aureus MR; 1.6 µM (≈ 4 µg/mL) in [9]; 3.27 µM (≈ 8.19 µg/mL) in assay [20]; > 3.27 µM in [12]; 3.19 µM (≈ 8 µg/mL) in assay [14]. For the same compound, the MIC with Escherichia coli ESBL came to 2.26 µM (≈ 5.66 µg/mL); in assay [21], 3.27 µM (≈ 8.19 µg/mL); against Pseudomonas aeruginosa, 6.39 µM (≈ 16 µg/mL).

As to `CC(C)C[C@H](NC(=O)[C@H](Cc1cnc[nH]1)NC(=O)[C@H](CO)NC(=O)[C@H](CC(N)=O)NC(=O)[C@H](CCCCN)NC(=O)[C@H](CCCCN)NC(=O)[C@H](Cc1ccccc1)NC(=O)[C@H](Cc1c[nH]c2ccccc12)NC(=O)[C@H](CCCCN)NC(=O)CNC(=O)[C@H](Cc1c[nH]c2ccccc12)NC(=O)[C@@H](N)CCCN=C(N)N)C(=O)N[C@@H](CO)C(N)=O` [RWGKWFKKNSHLS], the MIC in assay [6] was > 80 µM; in [22], ≥ 80 µM; in [23], ≥ 80 µM; in [24] it was ≥ 80 µM; in assay [25], ≥ 80 µM; with Bacillus subtilis 168 it was ≥ 80 µM.

In the case of `CC[C@H](C)[C@H](NC(=O)[C@H](CCCN=C(N)N)NC(=O)[C@H](CCCN=C(N)N)NC(=O)[C@H](CCCN=C(N)N)NC(=O)[C@H](CO)NC(=O)[C@H](Cc1ccccc1)NC(=O)[C@H](CC(=O)O)NC(=O)[C@H](Cc1ccccc1)NC(=O)[C@H](CCCN=C(N)N)NC(=O)[C@H](CCCN=C(N)N)NC(=O)[C@H](CCCN=C(N)N)NC(=O)[C@@H](N)CO)C(=O)N[C@@H](Cc1ccc(O)cc1)C(=O)N[C@H](C(=O)N[C@@H](C)C(=O)N[C@@H](CCCN=C(N)N)C(=O)N[C@@H](CCCN=C(N)N)C(=O)N[C@@H](CCCN=C(N)N)C(=O)N[C@@H](CO)C(=O)N[C@@H](CC(C)C)C(=O)N[C@@H](C)C(=O)N[C@@H](Cc1ccccc1)C(=O)N[C@@H](C)C(=O)N[C@@H](Cc1cnc[nH]1)C(=O)N[C@@H](CCCN=C(N)N)C(=O)N[C@@H](CCCN=C(N)N)C(=O)N[C@@H](CCCN=C(N)N)C(=O)O)C(C)C` [SRRRFDFSRRRIYVARRRSLAFAHRRR], the MIC in [26], in assay [27] and in assay [28] was 6.25 µM (≈ 22.2 µg/mL) each time.

Consider `CC[C@H](C)[C@H](NC(=O)[C@H](CCCN=C(N)N)NC(=O)[C@@H](NC(=O)[C@@H]1CCCN1C(=O)[C@@H]1CCCN1C(=O)[C@H](CCCN=C(N)N)NC(=O)[C@H](CCCN=C(N)N)NC(=O)[C@H](Cc1ccccc1)NC(=O)[C@@H]1CCCN1C(=O)[C@H](CC(C)C)NC(=O)[C@H](CCCN=C(N)N)NC(=O)[C@H](Cc1ccccc1)NC(=O)[C@@H](N)CCCN=C(N)N)[C@@H](C)CC)C(=O)N[C@@H](Cc1cnc[nH]1)C(N)=O` [RFRLPFRRPPIRIH], for which the MIC in assay [29] is ≥ 128 µM; in assay [30], ≥ 64 µM; in assay [31], 16 µM (≈ 29.8 µg/mL); in assay [32], 16 µM (≈ 29.8 µg/mL); against Escherichia coli ML-35p, 8 µM (≈ 14.9 µg/mL); in assay [33], 16 µM (≈ 29.8 µg/mL). Moreover, the MIC is 16 µM (≈ 29.8 µg/mL) in [34] and 2 µM (≈ 3.72 µg/mL) in assay [35].
